From the supplement of paper PMC10307832

How the values were obtained:
Experiment in all cases: relative viability (nuclei count vs DMSO), 5 days (fraction); higher = more cells survive
Avagacestat + OSI-027 = compound: NC(=O)[C@@H](CCC(F)(F)F)N(Cc1ccc(-c2ncon2)cc1F)S(=O)(=O)c1ccc(Cl)cc1 [Avagacestat] + COc1cccc2cc(-c3nc([C@H]4CC[C@H](C(=O)O)CC4)n4ncnc(N)c34)[nH]c12 [OSI-027] (partner 0.5 µM)
Method in brief: (§1)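 Lung cancer cell lines were pin-tool dosed in 1536-well plates on the day after seeding, with either a lone drug or a fixed anchor-drug dose plus five library-drug doses (not always all listed) in √10 steps. Nuclei were counted on 4× images after 5 days. Relative viability is the ratio of treated-well to vehicle-well nuclei counts, with each value a median of duplicate plates.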

Avagacestat + AZD7762 = compound: NC(=O)[C@@H](CCC(F)(F)F)N(Cc1ccc(-c2ncon2)cc1F)S(=O)(=O)c1ccc(Cl)cc1 [Avagacestat] + NC(=O)Nc1cc(-c2cccc(F)c2)sc1C(=O)N[C@H]1CCCNC1 [AZD7762] (partner 0.2 µM)
Method in brief: as §1

Avagacestat + Foretinib = compound: NC(=O)[C@@H](CCC(F)(F)F)N(Cc1ccc(-c2ncon2)cc1F)S(=O)(=O)c1ccc(Cl)cc1 [Avagacestat] + COc1cc2c(Oc3ccc(NC(=O)C4(C(=O)Nc5ccc(F)cc5)CC4)cc3F)ccnc2cc1OCCCN1CCOCC1 [Foretinib] (partner 0.25 µM)
Method in brief: as §1

Avagacestat + Pemetrexed = compound: NC(=O)[C@@H](CCC(F)(F)F)N(Cc1ccc(-c2ncon2)cc1F)S(=O)(=O)c1ccc(Cl)cc1 [Avagacestat] + Nc1nc2[nH]cc(CCc3ccc(C(=O)N[C@@H](CCC(=O)O)C(=O)O)cc3)c2c(=O)[nH]1 [Pemetrexed] (partner 0.2 µM)
Method in brief: as §1

| Cell Line | relative viability (Avagacestat + OSI-027; first compound 0.08 µM) | relative viability (Avagacestat + OSI-027; first compound 0.253 µM) | relative viability (Avagacestat + OSI-027; first compound 0.8 µM) | relative viability (Avagacestat + OSI-027; first compound 2.53 µM) | relative viability (Avagacestat + OSI-027; first compound 8 µM) | relative viability (Avagacestat + AZD7762; first compound 0.08 µM) | relative viability (Avagacestat + AZD7762; first compound 0.253 µM) | relative viability (Avagacestat + AZD7762; first compound 0.8 µM) | relative viability (Avagacestat + AZD7762; first compound 2.53 µM) | relative viability (Avagacestat + AZD7762; first compound 8 µM) | relative viability (Avagacestat + Foretinib; first compound 0.08 µM) | relative viability (Avagacestat + Foretinib; first compound 0.253 µM) | relative viability (Avagacestat + Foretinib; first compound 0.8 µM) | relative viability (Avagacestat + Foretinib; first compound 2.53 µM) | relative viability (Avagacestat + Foretinib; first compound 8 µM) | relative viability (Avagacestat + Pemetrexed; first compound 0.08 µM) | relative viability (Avagacestat + Pemetrexed; first compound 0.253 µM) | relative viability (Avagacestat + Pemetrexed; first compound 0.8 µM) | relative viability (Avagacestat + Pemetrexed; first compound 2.53 µM) | relative viability (Avagacestat + Pemetrexed; first compound 8 µM) |
| --- | --- | --- | --- | --- | --- | --- | --- | --- | --- | --- | --- | --- | --- | --- | --- | --- | --- | --- | --- | --- |
| NCI-H1915 | 0.744 | 0.639 | 0.596 | 0.582 | 0.568 | 0.694 | 0.72 | 0.74 | 0.806 | 0.678 | 1.21 | 1.26 | 1.21 | 1.06 | 1.03 | 0.521 | 0.573 | 0.537 | 0.5 | 0.52 |
| NCI-H1437 | 0.924 | 0.949 | 0.817 | 0.856 | 0.777 | 1.16 | 1.15 | 1.02 | 1.09 | 0.906 | 1.42 | 1.41 | 1.27 | 1.23 | 1.11 | 0.336 | 0.346 | 0.329 | 0.301 | 0.298 |
| HCC-366 | 1.07 | 1.49 | 1.01 | 0.772 | 0.872 | 0.268 | 0.272 | 0.328 | 0.235 | 0.176 | 1.01 | 1.05 | 0.944 | 1.01 | 1.04 | 0.199 | 0.195 | 0.191 | 0.161 | 0.142 |
| NCI-H2405 | 0.628 | 0.638 | 0.603 | 0.571 | 0.516 | 0.895 | 0.839 | 0.73 | 0.701 | 0.754 | 1.04 | 1.03 | 0.998 | 0.938 | 0.927 | 1.15 | 1.17 | 1.12 | 1.01 | 1.03 |
| LOU-NH91 | 0.688 | 0.656 | 0.789 | 0.723 | 0.716 | 0.828 | 0.838 | 0.864 | 0.673 | 0.736 | 0.925 | 0.916 | 0.974 | 0.886 | 0.893 | 0.389 | 0.344 | 0.431 | 0.427 | 0.336 |
| EMC-BAC-2 | 0.364 | 0.445 | 0.429 | 0.396 | 0.364 | 1.23 | 1.33 | 1.28 | 0.976 | 1.21 | 1.06 | 1.09 | 1.06 | 0.904 | 0.968 | 0.52 | 0.595 | 0.634 | 0.557 | 0.544 |
| NCI-H1993 | 0.583 | 0.548 | 0.536 | 0.524 | 0.521 | 0.956 | 0.61 | 0.741 | 0.731 | 0.6 | 0.924 | 0.885 | 0.973 | 0.763 | 0.787 | 0.826 | 0.542 | 0.686 | 0.684 | 0.504 |
| BEN | 0.313 | 0.303 | 0.544 | 0.303 | 0.327 | 0.706 | 0.676 | 0.744 | 0.79 | 0.644 | 0.692 | 0.694 | 0.725 | 0.74 | 0.62 | 0.879 | 0.897 | 0.851 | 0.904 | 0.807 |
| NCI-H1734 | 0.612 | 0.713 | 0.643 | 0.552 | 0.515 | 0.612 | 0.65 | 0.641 | 0.5 | 0.592 | 0.932 | 0.934 | 0.839 | 0.771 | 0.835 | 0.437 | 0.398 | 0.401 | 0.426 | 0.434 |
| NCI-H2347 | 0.506 | 0.352 | 0.398 | 0.366 | 0.369 | 0.707 | 0.783 | 0.743 | 0.696 | 0.587 | 1.22 | 1.07 | 0.931 | 0.842 | 0.977 | 0.426 | 0.454 | 0.447 | 0.465 | 0.406 |
| NCI-H647 | 0.552 | 0.773 | 0.575 | 0.559 | 0.572 | 0.634 | 0.484 | 0.565 | 0.516 | 0.292 | 1.38 | 1.41 | 1.27 | 1.21 | 1.11 | 0.171 | 0.171 | 0.186 | 0.149 | 0.15 |
| CAL-12T | 1.01 | 0.873 | 0.957 | 0.841 | 0.607 | 0.703 | 0.703 | 0.782 | 0.61 | 0.569 | 1.35 | 1.25 | 1.24 | 1.02 | 1.16 | 1.7 | 1.49 | 1.67 | 1.42 | 1.25 |
| EPLC-272H | 0.274 | 0.259 | 0.326 | 0.226 | 0.28 | 0.268 | 0.233 | 0.244 | 0.169 | 0.156 | 0.72 | 0.662 | 0.825 | 0.602 | 0.661 | 0.322 | 0.429 | 0.318 | 0.31 | 0.267 |
| LCLC-97TM1 | 0.562 | 0.674 | 0.424 | 0.694 | 0.518 | 0.165 | 0.397 | 0.205 | 0.264 | 0.272 | 0.977 | 0.916 | 0.894 | 0.92 | 0.944 | 0.177 | 0.177 | 0.159 | 0.166 | 0.146 |
| NCI-H3122 | 1.09 | 1.24 | 1.21 | – | 1.07 | 1.09 | 1.11 | 0.997 | 0.908 | 0.964 | 0.945 | 1 | 0.992 | 0.964 | 0.991 | 0.216 | 0.238 | 0.208 | 0.195 | 0.205 |
| HCC-15 | 0.757 | 0.881 | 0.776 | 0.644 | 0.717 | 1.21 | 1.22 | 1.3 | 1.16 | 1.38 | 1.14 | 1.16 | 1.15 | 0.958 | 1.01 | 0.227 | 0.22 | 0.232 | 0.212 | 0.194 |
